Laboratory results taken from patent US7365174B2, “Azalide and azalactam derivatives and method for producing the same” (Meiji Seika Kaisha, Ltd., priority 2003, dated 2008).
≈ marks a conversion by molar mass, not a printed value. Read-outs that look alike come from different tables or passages of the source.

How the values were obtained:
Test in all cases: Antibacterial activity test (agar dilution MIC)
Format in all cases: cell-based
[1] = tested on: Moraxella catarrhalis W-0506; details: read-out: Minimum inhibitory concentration (MIC)
Experimental: (§1) In vitro antibacterial activities of the compounds of Examples 13, 28, 35, 43, 53 to 55, 64, 70, 84, 90, 94, 95, 108, 128, and 129 were measured as follows by referring to the standard method of the Japanese Society of Chemotherapy (Chemotherapy, Vol. 29, pp. 76-79, 1981). The antibacterial activity of midecamycin (MDM) was similarly measured for comparison.
(§2) Using each solution of the test substance prepared in methanol at a concentration of […], 2-fold serial dilutions were prepared by using methanol. Each of the prepared solutions of the test substances was put into a petri dish in a volume of 200 μl, added with 10 ml of agar medium for sensitivity measurement added with 5% horse sterile defibrinated blood, 15 μg/ml of β-nicotinamide-adenine dinucleotide, and 2.5 μg/ml of Hemin, and mixed for dilution to prepare an agar plate containing a test substance. A predetermined volume of a liquid medium for sensitivity measurement, prepared so as to contain a given number of test bactera, was inoculated on the agar plate containing a test substance by using a micro planter (Sakuma Seisakusho), and after the inoculation, the bacteria were cultured at 37° C. for about 20 hours. After the culture, presence or absence of growth of the test bacteria on the plate was observed by visual inspection, and the minimum concentration at which growth was not observed was determined as the minimum inhibitory concentration (MIC) of the test sustance.

[2] = tested on: Streptococcus pneumoniae IP692; details: read-out: Minimum inhibitory concentration (MIC)
Experimental: as §1, §2

[3] = tested on: Streptococcus pneumoniae DP1 TypeI; details: DP1TYPEI, read-out: Minimum inhibitory concentration (MIC)
Experimental: as §1, §2

[4] = tested on: Streptococcus pyogenes Cook; details: read-out: Minimum inhibitory concentration (MIC)
Experimental: as §1, §2

[5] = tested on: Staphylococcus aureus 209P JC-1; details: read-out: Minimum inhibitory concentration (MIC)
Experimental: as §1, §2

[6] = tested on: Streptococcus pneumoniae TH-662; details: read-out: Minimum inhibitory concentration (MIC)
Experimental: as §1, §2

[7] = tested on: Haemophilus influenzae 9334; details: read-out: Minimum inhibitory concentration (MIC)
Experimental: as §1, §2

[8] = W0506, test bacterium F = Moraxella catarrhalis W-0506, blood agar medium, 37° C., about 20 hours
[9] = test bacterium C = Streptococcus pneumoniae IP692, blood agar medium, 37° C., about 20 hours
[10] = test bacterium B = Streptococcus pneumoniae DP1 TypeI, blood agar medium, 37° C., about 20 hours
[11] = test bacterium E = Streptococcus pyogenes Cook, blood agar medium, 37° C., about 20 hours
[12] = test bacterium A = Staphylococcus aureus 209P JC-1, blood agar medium, 37° C., about 20 hours
[13] = TH662, test bacterium D = Streptococcus pneumoniae TH-662, blood agar medium, 37° C., about 20 hours
[14] = test bacterium G = Haemophilus influenzae 9334, blood agar medium, 37° C., about 20 hours

Structure (SMILES)	MIC [1, 8]	MIC [2, 9]	MIC [3, 10]	MIC [4, 11]	MIC [5, 12]	MIC [6, 13]	MIC [7, 14]	MIC ([1]; Moraxella catarrhalis, W0506, 20 h)	MIC ([2]; Streptococcus pneumoniae, IP692, 20 h)	MIC ([3]; Streptococcus pneumoniae, 20 h)	MIC ([7]; Haemophilus influenzae, 9334, 20 h)	MIC ([4]; Streptococcus pyogenes, 20 h)	MIC ([5]; Staphylococcus aureus, 209P, 20 h)	MIC ([6]; Streptococcus pneumoniae, TH662, 20 h)
CCC(=O)O[C@@H]1CC(=O)OCCC(/C=C/Cc2ccnc3ccccc23)CN(C)C[C@H](O)[C@H](C)C[C@H](CC=O)[C@H](O[C@@H]2OC(C)[C@@H](O[C@H]3CC(C)(O)[C@@H](OC(=O)CC)C(C)O3)C(N(C)C)C2O)[C@H]1OC (single isomer, unassigned) [Example 54]	1 µg/mL (≈ 1.01 µM)	0.03 µg/mL (≈ 0.0304 µM)	0.015 µg/mL (≈ 0.0152 µM)	0.03 µg/mL (≈ 0.0304 µM)	0.13 µg/mL (≈ 0.132 µM)	8 µg/mL (≈ 8.11 µM)								
CCC(=O)OC1C(C)O[C@@H](O[C@@H]2C(C)O[C@@H](O[C@H]3[C@@H](CC=O)C[C@@H](C)[C@@H](O)CN(CCCCc4ccccc4)CCCNC(=O)C[C@@H](OC(=O)CC)[C@@H]3OC)C(O)C2N(C)C)CC1(C)OC(C)=O (some centres unmarked) [Example 13]	0.25 µg/mL (≈ 0.259 µM)	0.25 µg/mL (≈ 0.259 µM)	0.13 µg/mL (≈ 0.135 µM)	0.25 µg/mL (≈ 0.259 µM)	0.25 µg/mL (≈ 0.259 µM)	16 µg/mL (≈ 16.6 µM)	0.5 µg/mL (≈ 0.519 µM)							
CCC(=O)OC1C(C)O[C@@H](O[C@@H]2C(C)O[C@@H](O[C@H]3[C@@H](CC=O)C[C@@H](C)[C@@H](O)CN(C)CCC(/C=C/Cc4ccnc5ccccc45)NC(=O)C[C@@H](OC(=O)CC)[C@@H]3OC)C(O)C2N(C)C)CC1(C)O (some centres unmarked) [Example 28]	2 µg/mL (≈ 2.06 µM)	0.13 µg/mL (≈ 0.134 µM)	0.03 µg/mL (≈ 0.0309 µM)	0.25 µg/mL (≈ 0.257 µM)	0.5 µg/mL (≈ 0.515 µM)	8 µg/mL (≈ 8.24 µM)	1 µg/mL (≈ 1.03 µM)							
CCC(=O)OC1C(C)O[C@@H](O[C@@H]2C(C)O[C@@H](O[C@H]3[C@@H](CC=O)C[C@@H](C)[C@@H](O)CN(C)CCC(CCCc4cnc5ccccc5c4)NC(=O)C[C@@H](OC(=O)CC)[C@@H]3OC)C(O)C2N(C)C)CC1(C)O (some centres unmarked) [Example 35]	4 µg/mL (≈ 4.11 µM)	0.06 µg/mL (≈ 0.0617 µM)	0.03 µg/mL (≈ 0.0308 µM)	0.25 µg/mL (≈ 0.257 µM)	1 µg/mL (≈ 1.03 µM)	8 µg/mL (≈ 8.22 µM)	2 µg/mL (≈ 2.06 µM)							
CCC(=O)O[C@@H]1CC(=O)O[C@H](C)CCCN(CCCCc2ccccc2)C[C@H](O)[C@H](C)C[C@H](CC=O)[C@H](O[C@@H]2OC(C)[C@@H](O[C@H]3CC(C)(OC(C)=O)[C@@H](OC(=O)CC)C(C)O3)C(N(C)C)C2O)[C@H]1OC (some centres unmarked) [Example 43]	0.5 µg/mL (≈ 0.503 µM)	0.06 µg/mL (≈ 0.0604 µM)	0.06 µg/mL (≈ 0.0604 µM)	0.13 µg/mL (≈ 0.131 µM)	0.25 µg/mL (≈ 0.252 µM)	1 µg/mL (≈ 1.01 µM)	0.5 µg/mL (≈ 0.503 µM)							
CCC(=O)O[C@@H]1CC(=O)O[C@@H](C/C=C/c2cnc3ccccc3c2)CCCN(C)C[C@H](O)[C@H](C)C[C@H](CC=O)[C@H](O[C@@H]2OC(C)[C@@H](O[C@H]3CC(C)(O)[C@@H](OC(=O)CC)C(C)O3)C(N(C)C)C2O)[C@H]1OC (some centres unmarked) [Example 53]	1 µg/mL (≈ 1.01 µM)	0.03 µg/mL (≈ 0.0304 µM)	0.015 µg/mL (≈ 0.0152 µM)	0.06 µg/mL (≈ 0.0608 µM)	0.5 µg/mL (≈ 0.507 µM)	8 µg/mL (≈ 8.11 µM)	2 µg/mL (≈ 2.03 µM)							
CCC(=O)O[C@@H]1CC(=O)OCCC(/C=C/Cc2ccnc3ccccc23)CN(C)C[C@H](O)[C@H](C)C[C@H](CC=O)[C@H](O[C@@H]2OC(C)[C@@H](O)C(N(C)C)C2O)[C@H]1OC (some centres unmarked) [Example 55]	0.25 µg/mL (≈ 0.318 µM)	0.03 µg/mL (≈ 0.0382 µM)	0.03 µg/mL (≈ 0.0382 µM)	0.06 µg/mL (≈ 0.0763 µM)	0.5 µg/mL (≈ 0.636 µM)	> 128 µg/mL								
CCC(=O)O[C@@H]1CC(=O)NCCCCN(CCCCc2ccccc2)C[C@H](O)[C@H](C)C[C@H](CC=O)[C@H](O[C@@H]2OC(C)[C@@H](O[C@H]3CC(C)(OC(C)=O)[C@@H](OC(=O)CC)C(C)O3)C(N(C)C)C2O)[C@H]1OC (some centres unmarked) [Example 64]	0.25 µg/mL (≈ 0.256 µM)	0.25 µg/mL (≈ 0.256 µM)	0.13 µg/mL (≈ 0.133 µM)	0.06 µg/mL (≈ 0.0613 µM)	0.25 µg/mL (≈ 0.256 µM)	8 µg/mL (≈ 8.18 µM)	1 µg/mL (≈ 1.02 µM)							
CCC(=O)O[C@@H]1CC(=O)O[C@@H](C/C=C/c2ccc3ccccc3c2)CCCN(C)C[C@H](O)[C@H](C)C[C@H](CC=O)[C@H](O[C@@H]2OC(C)[C@@H](O[C@H]3CC(C)(O)[C@@H](OC(=O)CC)C(C)O3)C(N(C)C)C2O)[C@H]1OC (some centres unmarked) [Example 84]	2 µg/mL (≈ 2.03 µM)	0.06 µg/mL (≈ 0.0609 µM)	0.06 µg/mL (≈ 0.0609 µM)	0.25 µg/mL (≈ 0.254 µM)	0.5 µg/mL (≈ 0.507 µM)	8 µg/mL (≈ 8.12 µM)	8 µg/mL (≈ 8.12 µM)							
CCC(=O)O[C@@H]1CC(=O)O[C@@H](C/C=C/c2cnc3ccccc3c2)CCCN(C)C[C@H](O)[C@H](C)C[C@H](CC=O)[C@H](O[C@@H]2OC(C)[C@@H](O[C@H]3CC(C)(OC(C)=O)[C@@H](OC(=O)CC)C(C)O3)C(N(C)C)C2O)[C@H]1OC (some centres unmarked) [Example 90]	1 µg/mL (≈ 0.973 µM)	0.03 µg/mL (≈ 0.0292 µM)	0.015 µg/mL (≈ 0.0146 µM)	0.03 µg/mL (≈ 0.0292 µM)	0.25 µg/mL (≈ 0.243 µM)	0.25 µg/mL (≈ 0.243 µM)	4 µg/mL (≈ 3.89 µM)							
CCC(=O)O[C@@H]1CC(=O)O[C@@H](C/C=C/c2cnc3ncccc3c2)CCCN(C)C[C@H](O)[C@H](C)C[C@H](CC=O)[C@H](O[C@@H]2OC(C)[C@@H](O[C@H]3CC(C)(OC(C)=O)[C@@H](OC(=O)CC)C(C)O3)C(N(C)C)C2O)[C@H]1OC (some centres unmarked) [Example 94]	1 µg/mL (≈ 0.972 µM)	0.03 µg/mL (≈ 0.0291 µM)	0.015 µg/mL (≈ 0.0146 µM)	0.06 µg/mL (≈ 0.0583 µM)	0.5 µg/mL (≈ 0.486 µM)	0.5 µg/mL (≈ 0.486 µM)	4 µg/mL (≈ 3.89 µM)							
CCC(=O)O[C@@H]1CC(=O)O[C@@H](C/C=C/c2ccc3ccccc3c2)CCCN(C)C[C@H](O)[C@H](C)C[C@H](CC=O)[C@H](O[C@@H]2OC(C)[C@@H](O[C@H]3CC(C)(OC(C)=O)[C@@H](OC(=O)CC)C(C)O3)C(N(C)C)C2O)[C@H]1OC (some centres unmarked) [Example 95]	4 µg/mL (≈ 3.89 µM)	0.13 µg/mL (≈ 0.127 µM)	0.06 µg/mL (≈ 0.0584 µM)	0.25 µg/mL (≈ 0.243 µM)	1 µg/mL (≈ 0.973 µM)	1 µg/mL (≈ 0.973 µM)	32 µg/mL (≈ 31.2 µM)							
CCC(=O)O[C@@H]1CC(=O)O[C@@H](C/C=C/c2cccc(-c3cccnc3)c2)CCCN(C)C[C@H](O)[C@H](C)C[C@H](CC=O)[C@H](O[C@@H]2OC(C)[C@@H](O[C@H]3CC(C)(OC(C)=O)[C@@H](OC(=O)CC)C(C)O3)C(N(C)C)C2O)[C@H]1OC (some centres unmarked) [Example 108]	2 µg/mL (≈ 1.9 µM)	0.06 µg/mL (≈ 0.0569 µM)	0.03 µg/mL (≈ 0.0285 µM)	0.13 µg/mL (≈ 0.123 µM)	0.5 µg/mL (≈ 0.474 µM)	0.5 µg/mL (≈ 0.474 µM)	8 µg/mL (≈ 7.59 µM)							
CCCC(=O)O[C@H]1C(C)O[C@@H](O[C@@H]2C(C)O[C@@H](O[C@H]3[C@@H](CC=O)C[C@@H](C)[C@@H](O)CN(C)CCC[C@H](C/C=C/c4cnc5ccccc5c4)OC(=O)C[C@@H](O)[C@@H]3OC)C(O)C2N(C)C)CC1(C)OC(=O)CC (some centres unmarked) [Example 128]	1 µg/mL (≈ 1 µM)	0.03 µg/mL (≈ 0.03 µM)	0.03 µg/mL (≈ 0.03 µM)	0.06 µg/mL (≈ 0.06 µM)	0.5 µg/mL (≈ 0.5 µM)	0.13 µg/mL (≈ 0.13 µM)	16 µg/mL (≈ 16 µM)							
CCCC(=O)O[C@H]1C(C)O[C@@H](O[C@@H]2C(C)O[C@@H](O[C@H]3[C@@H](CC=O)C[C@@H](C)[C@@H](O)CN(C)CCC[C@H](C/C=C/c4cncc5ccccc45)OC(=O)C[C@@H](O)[C@@H]3OC)C(O)C2N(C)C)CC1(C)OC(=O)CC (some centres unmarked) [Example 129]	1 µg/mL (≈ 1 µM)	0.03 µg/mL (≈ 0.03 µM)	0.015 µg/mL (≈ 0.015 µM)	0.06 µg/mL (≈ 0.06 µM)	0.5 µg/mL (≈ 0.5 µM)	0.13 µg/mL (≈ 0.13 µM)	8 µg/mL (≈ 8 µM)							
CCC(=O)O[C@@H]1CC(=O)O[C@H](C)C/C=C/C=C/[C@H](O)[C@H](C)C[C@H](CC=O)[C@H](O[C@@H]2O[C@H](C)[C@@H](O[C@H]3C[C@@](C)(O)[C@@H](OC(=O)CC)[C@H](C)O3)[C@H](N(C)C)[C@H]2O)[C@H]1OC [MDM, midecamycin, reference compound]								2 µg/mL (≈ 2.46 µM)	0.5 µg/mL (≈ 0.614 µM)	0.25 µg/mL (≈ 0.307 µM)	2 µg/mL (≈ 2.46 µM)	0.25 µg/mL (≈ 0.307 µM)	0.5 µg/mL (≈ 0.614 µM)	> 128 µg/mL
